Here are results for three molecules from patent US4220577A, “Iodopropargyl pyridyl and picolinyl ethers and thioethers as paint fungicides” (Givaudan Corporation, priority 1979, dated 1980).

For one assay, the system named is mildew. In words: Outdoor field test of painted pine panels. The following applies: .5%. The source says:
A number of the compounds were field tested in various latex paints. Pine panels (6"×12"×1/2") were given two coats of paint and, after drying, were exposed at an outdoor location subject to high heat and humidity levels. Paints containing the novel componds of this invention were compared with those containing the commercial mecurial mildewcide phenyl mecuric acetate (PMA), a commercial non-mercurial mildewcide 2-n-octyl-4-isothiazolin-3-one and 3-iodo-2-propynyloxybenzene.

A further assay concerns Staphylococcus aureus. In words: 5-fold serial dilution test in agar, MIC, B1. The following applies: 37° C., 48 hours, read-out: Minimum Inhibitory Concentration Range. Format: cell-based. On the procedure:
(§1) Antibacterial and antifungal activity were evaluated by a 5-fold serial dilution test in agar. In this test, compounds were prepared as 6% solutions in dimethylformamide or ethanol. The 6% solution was then 5-fold serially diluted in test tubes to give the desired concentrations when mixed with agar and poured into sterile Petri dishes. Trypticase glucose extract agar was used for the bacterial testing; mildew glucose agar for the fungal testing. The bacterial plates were spot inoculated with 24-hour nutrient broth cultures and incubated at 37° C. for 48 hours. The fungal plates were spot inoculated with spore suspensions and incubated at 28° C. for seven days. At the end of the incubation periods, all plates were examined for growth. The minimum inhibitory concentration (MIC) for each organism is expressed in Table I. In the ranges presented, growth is observed only at the lower concentration.
B1 Staphylococcus aureus

Another assay deals with Proteus vulgaris. In words: 5-fold serial dilution test in agar, MIC, B4. Format: cell-based. The following applies: 37° C., 48 hours, read-out: Minimum Inhibitory Concentration Range. The method, then: as §1
In a further assay the test system is Bacillus subtilis. As to the kind of experiment: 5-fold serial dilution test in agar, MIC, B5. Format: cell-based. The following applies: 37° C., 48 hours, read-out: Minimum Inhibitory Concentration Range. On the procedure: as §1
B5 Bacillus subtilis 4 3 μg/ml

The test system of a further assay is Aspergillus oryzae. As to the kind of experiment: 5-fold serial dilution test in agar, MIC, F2. Format: cell-based. The following applies: 168 h, 28° C., seven days, read-out: Minimum Inhibitory Concentration Range. On the procedure:
as §1

The next assay concerns Aspergillus niger. As to the kind of experiment: 5-fold serial dilution test in agar, MIC, F1. Format: cell-based. The following applies: 168 h, 28° C., seven days, read-out: Minimum Inhibitory Concentration Range. On the procedure: as §1
In the next assay the test system is Aureobasidium pullulans. As to the kind of experiment: 5-fold serial dilution test in agar, MIC, F4. Format: cell-based. The following applies: 168 h, 28° C., seven days, read-out: Minimum Inhibitory Concentration Range. On the procedure: as §1
F4 Aureobasidium pullulans

Another assay relates to Pseudomonas aeruginosa. As to the kind of experiment: 5-fold serial dilution test in agar, MIC, B3. Format: cell-based. The following applies: 37° C., 48 hours, read-out: Minimum Inhibitory Concentration Range. The method, then:
as §1
B3 Pseudomonas aeruginosa

The test system of a further assay is Escherichia coli. In words: 5-fold serial dilution test in agar, MIC, B2. Format: cell-based. The following applies: 37° C., 48 hours, read-out: Minimum Inhibitory Concentration Range. On the procedure: as §1
The next assay relates to Penicillium piscarium. In words: 5-fold serial dilution test in agar, MIC, F3. Format: cell-based. The following applies: 168 h, 28° C., seven days, read-out: Minimum Inhibitory Concentration Range. The method, then:
as §1
F3 Penicillium piscarium

Values after ≈ are worked out from the molar mass of the structure shown. Where only a bound is given, the exact number is not on record here.

As to `IC#CCOc1cccnc1` [Compound 1, 3-(3-iodo-2-propynyloxy)pyridine], the “Panel Scoring” value is 8 with mildew (Paint B (Acrylic latex-alkyd modified), month 5) and 8 in the assay on mildew (Paint B (Acrylic latex-alkyd modified), month 6).

Take `CCCCCCCCn1sccc1=O` [II, 2-n-octyl-4-isothiazolin-3-one, reference compound]: the “Panel Scoring” value with mildew (Paint A (Vinyl acetate latex), month 4) is on record as 8.

As for `IC#CCSc1ccncc1` [drawing 10], the MIC in the assay with Staphylococcus aureus was 384 to 1920 µg/mL (≈ 1400 to 6980 µM); with Proteus vulgaris, 384 to 1920 µg/mL (≈ 1400 to 6980 µM); in the assay with Bacillus subtilis, 76 to 384 µg/mL (≈ 276 to 1400 µM); with Aspergillus oryzae, 0.12 to 0.6 µg/mL (≈ 0.436 to 2.18 µM); with Aspergillus niger it was less than 0.03 µg/mL; with Aureobasidium pullulans, 0.12 to 0.6 µg/mL (≈ 0.436 to 2.18 µM). Further, the figures for the MIC with Pseudomonas aeruginosa, in the assay with Escherichia coli and in the assay with Penicillium piscarium were greater than 1920 µg/mL, greater than 1920 µg/mL and 0.12 to 0.6 µg/mL (≈ 0.436 to 2.18 µM), respectively.
